In the first test the target is T1, HIV protease (Human immunodeficiency virus type 1 group M subtype B, UniProt P04585).
T1 construct: HIV protease was expressed in E. coli; made in house; host or cells: E. coli
Put plainly: biochemical. The following applies: partially purified HIV protease expressed in E. coli; substrate succinyl-Ser-Leu-Asn-Tyr-Pro-Ile isobutylamide; citrate buffer pH 5.5; 37° C.; read-out: I50 (concentration of test compound required to give 50% inhibition). On the procedure: HIV protease was expressed in E. coli and partially purified from soluble extracts of the bacterium by ammonium sulphate fractionation (0-30%). Protease activity was assayed using the protected hexapeptide succinyl-Ser-Leu-Asn-Tyr-Pro-Ile isobutylamide as the substrate. Cleavage of the substrate was quantified by measuring the production of H-Pro-Ile isobutylamide by the spectrophotometric assay of N-terminal proline.
1.25 mM of substrate were dissolved in 125 mM of citrate buffer (pH 5.5) containing 0.125 mg/ml of Tween 20. 10 μl of a solution of various concentrations of the test compound (dissolved in methanol or […]) and 10 μl of protease were added to 80 μl of the above buffered substrate. Digestion was carried out at 37° C. for a fixed period of time and was terminated by the addition of 1 ml of colour reagent [30 μg/ml of isatin and 1.5 mg/ml of 2-(4-chlorobenzoyl)benzoicacid in 10% acetone in ethanol (vol./vol.)]. The solution was heated in a water bath and then the pigmented residues were re-dissolved in 1 ml of 1% pyrogallol in 33% water in acetone (wt./vol./vol.). The optical density of the solution was measured spectrophotometrically at 599 nm.
With `CC(C)(C)NC(=O)C1Cc2ccccc2CN1C[C@@H](O)[C@H](Cc1ccccc1)NC(=O)[C@H](CC(N)=O)NC(=O)OCc1ccccc1` (mixture of isomers) [Compound I, 2-[3(S)-[[N-(benzyloxycarbonyl)-L-asparaginyl]amino]-2(R)-hydroxy-4-phenylbutyl]-N-tert.butyl-1,2,3,4-tetrahydro-3(R,S)-isoquinolinecarboxamide], the IC50 turned out to be 85 nM.

Consider `CC[C@H](C)[C@H](NC(=O)[C@@H]1CCCN1CC(O)[C@H](Cc1ccccc1)NC(=O)[C@H](CC(N)=O)NC(=O)[C@H](CC(C)C)NC(=O)OCc1ccccc1)C(=O)NCC(C)C` (mixture of isomers) [Compound E, N^2-[N-[3(S)-[[N-[N-(benzyloxycarbonyl)-L-leucyl]-L-asparaginyl]amino]-2(R and S)-hydroxy-4-phenylbutyl]-L-prolyl]-N^1-isobutyl-L-isoleucinamide], for which the IC50 worked out at 750 nM. For the molecule `CC[C@H](C)[C@H](NC(=O)[C@@H]1CCCN1CC(O)[C@H](Cc1ccccc1)NC(=O)[C@H](CC(N)=O)NC(=O)OCc1ccccc1)C(=O)NCC(C)C` (single isomer, unassigned) [Compound D], the IC50 worked out at 130 nM. Turning to `CC(C)CCNC(=O)[C@@H]1CCCN1CC(O)[C@H](Cc1ccccc1)NC(=O)[C@H](CC(N)=O)NC(=O)OCc1ccccc1` (single isomer, unassigned) [Compound F], the IC50 came out at 750 nM. As to `CC(C)CNC(=O)[C@@H]1CCCN1CC(O)[C@H](Cc1ccccc1)NC(=O)[C@H](CC(N)=O)NC(=O)OCc1ccccc1` (single isomer, unassigned) [Compound G, N^2-[3(S)-[[N-(benzyloxycarbonyl)-L-asparaginyl]amino]-2(R or S)-hydroxy-4-phenylbutyl]-N^1-isobutyl-L-prolinamide], the IC50 is 80 nM. With `CC(C)(C)OC(=O)[C@@H]1CCCN1CC(=O)[C@H](Cc1ccccc1)NC(=O)[C@H](CC(N)=O)NC(=O)OCc1ccccc1` [Compound A, N-[N-[[N-(benzyloxycarbonyl)-L-asparaginyl]-L-phenylalanyl]methyl]-L-proline tert.butyl ester], the IC50 was 870 nM.

Take `CC(C)(C)OC(=O)[C@@H]1CCCN1C[C@@H](O)[C@H](Cc1ccccc1)NC(=O)[C@H](CC(N)=O)NC(=O)c1ccc2ccccc2c1` [Compound H, N-[2(R)-hydroxy-3(S)-[[N-(2-naphthoyl)-L-asparaginyl]amino]-4-phenylbutyl]-L-proline tert.butyl ester]: the IC50 amounted to 10 nM.

The test is the same for the next values; noted with them: read-out: I50 (concentration of test compound required to give 50% inhibition).
Consider `CC(C)(C)OC(=O)[C@@H]1CCCN1C[C@@H](O)[C@H](Cc1ccccc1)NC(=O)[C@H](CC(N)=O)NC(=O)OCc1ccccc1` [Compound B, N-[3(S)-[[N-(benzyloxycarbonyl)-L-asparaginyl]amino]-2(R)-hydroxy-4-phenylbutyl]-L-proline tert.butyl ester], for which the IC50 came to 150 nM. On the same count and under the same terms, with `CC(C)(C)OC(=O)[C@@H]1CCCN1C[C@H](O)[C@H](Cc1ccccc1)NC(=O)[C@H](CC(N)=O)NC(=O)OCc1ccccc1` [Compound C, N-[3(S)-[[N-(benzyloxycarbonyl)-L-asparaginyl]amino]-2(S)-hydroxy-4-phenylbutyl]-L-proline tert.butyl ester] the figure was 300 nM.

The record behind these values is patent publication US5157041A, “Amino acid derivatives” (Hoffmann-La Roche Inc., priority 1988, dated 1992).
